Results on 14 compounds are retold here after patent US10392348B2, “2-oxo-3,4-dihydroquinoline compounds as plant growth regulators” (Syngenta Participations AG, priority 2015, dated 2019).

The test system of data set [1] is soybean plants (variety S20-G7). The data set can be described thus: Reduced plant water use in soybean (foliar spray, repeated weighing of pots). The format is in vivo. The following applies: Glycine max, foliar, Table B1, sprayed at 500 μM, vs negative control. On the procedure:
Compounds were tested for their effect on reducing plant water use as follows. Each compound was dissolved in a blank emulsifiable concentrate (EC) formulation that was then diluted to the desired concentration with water containing additional surfactant (EXTRAVON 1 g/20 L). The compounds were applied by foliar spray to 12 day old soybean plants (variety S20-G7) grown in controlled environment plant growth chambers. Plant water use during the day was assessed by repeated weighing of the pots in which the plants were grown before and after application of the compounds at the indicated times (expressed in days after application (DAA)). The water use data before application was used to correct any differences in water use arising due to non-treatment effects (e.g. due to differences in plant size). The untransformed water use values were subjected to an analysis of covariance, fitting the effect of treatment and using the baseline water use 1 day before application as a covariate.
The results are expressed compared to negative control treatment (diluted EC formulation without active ingredient but with EXTRAVON 1 g/20 L).
Application of the chemicals (0 DAA) takes place approximately between 08:00 and 09:30 a.m. WU is measured within day time (chamber light is on 06:00 to 20:00) at these timepoints: 0 DAA a.m. (10:30-12:50), 0 DAA p.m. (14:00-19:50), 1 DAA a.m. (7:30-12:50), 1 DAA p.m. (14:00-19:50), 2 DAA a.m. (07:30-12:50) and 2 DAA p.m. (14:00-19:50). The cumulative total WU (0-2.5 DAA) is calculated by summing the WU data mentioned above.

Data set [2] relates to corn plants (variety NK OCTET). The data set can be described thus: Reduced plant water use in corn (foliar spray, repeated weighing of pots). It counts as in vivo. The settings on record: Zea mays, corn plants sprayed at 500 μM, average of 6 pots. On the procedure:
Compounds were tested for their effect on reducing plant water use as follows. The compounds were applied by foliar spray to 12 day old corn plants (variety NK OCTET) grown in controlled environment plant growth chambers. All compounds were applied using an emulsifiable concentrate (EC) formulation that was diluted to the desired concentrations with water containing 0.4% of the adjuvant rape seed methyl ester. Plant water use during the day was assessed by repeated weighing of the pots in which the plants were grown before and after application of the compounds at the indicated times (expressed in days after application (DAA)). The water use data before application was used to correct any differences in water use arising due to non-treatment effects (e.g. due to differences in plant size). The untransformed water use values were subjected to an analysis of covariance, fitting the effect of treatment and using the baseline water use 1 day before application as a covariate. Application of the chemicals (0 DAA) takes place approximately between 08:00 and 09:30 a.m. WU is measured within day time (chamber light is on 06:00 to 20:00) at these timepoints: 0 DAA a.m. (10:30-12:50), 0 DAA p.m. (14:00-19:50), 1 DAA a.m. (07:30-12:50), 1 DAA p.m. (14:00-19:50), 2 DAA a.m. (07:30-12:50) and 2 DAA p.m. (14:00-19:50). The cumulative total WU (0-2.5 DAA) is calculated by summing the WU data mentioned above.

Setting [3] is: 0 h, 0 DAA a.m. (10:30-12:50), read-out: % WU 0 DAA AM.
Setting [4] is: 24 h, 1 DAA a.m. (7:30-12:50), read-out: % WU 1DAA AM.
The mark [5] stands for this setting: 24 h, 1 DAA p.m. (14:00-19:50), read-out: % WU 1DAA PM.
[6] abbreviates: 48 h, 2 DAA a.m. (07:30-12:50), read-out: % WU 2 DAA AM.
Setting [7] is: 48 h, 2 DAA p.m. (14:00-19:50), read-out: % WU 2 DAA PM.
[8] abbreviates: 60 h, cumulative total WU (0-2.5 DAA), read-out: % WU Total 0 to 2.5 DAA.
[9] abbreviates: 0 h, water use during day time vs negative control, 0 DAA a.m. (10:30-12:50), read-out: % WU 0 DAA AM.
[10] abbreviates: 0 h, water use during day time vs negative control, 0 DAA p.m. (14:00-19:50), read-out: % WU 0DAA PM.
Setting [11] is: 24 h, water use during day time vs negative control, 1 DAA a.m. (07:30-12:50), read-out: % WU 1DAA AM.
[12] abbreviates: 24 h, water use during day time vs negative control, 1 DAA p.m. (14:00-19:50), read-out: % WU 1DAA PM.
The mark [13] stands for this setting: 48 h, water use during day time vs negative control, 2 DAA a.m. (07:30-12:50), read-out: % WU 2 DAA AM.
[14] abbreviates: 48 h, water use during day time vs negative control, 2 DAA p.m. (14:00-19:50), read-out: % WU 2 DAA PM.
[15] abbreviates: 60 h, cumulative total water use 0-2.5 DAA (sum of the time points) vs negative control, read-out: % WU Total 0 to 2.5 DAA.

Where two headings read alike, the source gives them in different places.

As for `CCCN1C(=O)CCc2cc(CNS(=O)(=O)c3ccc(C)cc3C)ccc21`, the melting point (commonly the temperature of the solid-liquid transition) fell in the range of 166 to 167 °C.

For the compound `CCN1C(=O)CCc2cc(CNS(=O)(=O)c3ccccc3C)ccc21` [Compound 2.011, N-[(1-ethyl-2-oxo-3,4-dihydroquinolin-6-yl)methyl]-2-methyl-benzenesulfonamide], the melting point was in the range of 203 to 206 °C.

As for `CCN1C(=O)CCc2cc(CNS(=O)(=O)c3ccc(C)cc3)ccc21` [Compound 2.012, N-[(1-ethyl-2-oxo-3,4-dihydroquinolin-6-yl)methyl]-4-methyl-benzenesulfonamide], the melting point was in the range of 202 to 203 °C.

Compound `CCN1C(=O)CCc2cc(CNS(=O)(=O)c3ccccc3Br)ccc21` [Compound 2.017, 2-bromo-N-[(1-ethyl-2-oxo-3,4-dihydroquinolin-6-yl)methyl]benzenesulfonamide] returned a melting point of 206 to 207 °C.

As for `CCN1C(=O)CCc2cc(CNS(=O)(=O)C3CC3)ccc21` [Compound 2.018, N-[(1-ethyl-2-oxo-3,4-dihydroquinolin-6-yl)methyl]cyclopropanesulfonamide], the melting point fell in the range of 104 to 106 °C.

In the case of `CCN1C(=O)CCc2cc(CNS(=O)(=O)/C=C/c3ccc(Br)cc3)ccc21` [Compound 2.052, (E)-2-(4-bromophenyl)-N-[(1-ethyl-2-oxo-3,4-dihydroquinolin-6-yl)methyl]ethenesulfonamide], the melting point fell in the range of 119 to 124 °C.

`CCN1C(=O)CCc2cc(CNS(=O)(=O)/C=C/c3ccc(C)cc3)ccc21` [Compound 2.059, (E)-N-[(1-ethyl-2-oxo-3,4-dihydroquinolin-6-yl)methyl]-2-(p-tolyl)ethenesulfonamide] returned a melting point of 151 to 153 °C.

`CCN1C(=O)CCc2cc(CNS(=O)(=O)c3cn(C)cn3)ccc21` [Compound 2.063, N-[(1-ethyl-2-oxo-3,4-dihydroquinolin-6-yl)methyl]-1-methyl-imidazole-4-sulfonamide] displayed a melting point of 165 to 167 °C.

Take `CCN1C(=O)CCc2cc(CNS(=O)(=O)c3cc(Cl)sc3Cl)ccc21` [Compound 2.064, 2,5-dichloro-N-[(1-ethyl-2-oxo-3,4-dihydroquinolin-6-yl)methyl]thiophene-3-sulfonamide]: the melting point fell in the range of 198 to 201 °C.

Regarding `CCCN1C(=O)CCc2cc(CNS(=O)(=O)CCCC(F)(F)F)ccc21` [Compound 3.020, 4,4,4-trifluoro-N-[(2-oxo-1-propyl-3,4-dihydroquinolin-6-yl)methyl]butane-1-sulfonamide], the change in vivo at 500 µM is -19.3% in data set [1] (setting [3]); -10.1% in data set [1] (setting [4]); -5.5% in data set [1] (setting [5]); -7.4% in data set [1] (setting [6]); -4.2% in data set [1] (setting [7]); -8.5% in data set [1] (setting [8]). In addition, the change in vivo at 500 µM was -19.2% in data set [2] (setting [9]); -13.7% in data set [2] (setting [10]); -14.8% in data set [2] (setting [11]); -12.1% in data set [2] (setting [12]); -11.5% in data set [2] (setting [13]); -8.5% in data set [2] (setting [14]). The change in vivo at 500 µM in data set [2] (setting [15]) was -12.7%.

In the case of `CCCN1C(=O)CCc2cc(C3(NS(=O)(=O)c4ccccc4)CC3)ccc21` [Compound 15.001, N-[1-(2-oxo-1-propyl-3,4-dihydroquinolin-6-yl)cyclopropyl]benzenesulfonamide], the change in vivo at 500 µM in data set [1] (setting [3]) is -27.4%; in data set [1] (setting [4]) it was -14.9%; in data set [1] (setting [5]) it was -13.9%; in data set [1] (setting [6]), -9.5%; in data set [1] (setting [7]), -7.2%; in data set [1] (setting [8]) it was -15.1%. Also, the change in vivo at 500 µM in data set [2] (setting [9]) was -8.2%; in data set [2] (setting [10]) it was -6.5%; in data set [2] (setting [11]), -6.5%; in data set [2] (setting [12]), -3.5%; in data set [2] (setting [13]), -2.8%; in data set [2] (setting [14]), -1.8%. Besides, the change in vivo at 500 µM in data set [2] (setting [15]) was -4.3%.

Regarding `CCCN1C(=O)CCc2cc(C3(NS(=O)(=O)c4ccc(F)cc4F)CC3)ccc21` [Compound 15.006, 2,4-difluoro-N-[1-(2-oxo-1-propyl-3,4-dihydroquinolin-6-yl)cyclopropyl]benzenesulfonamide], the change in vivo at 500 µM in data set [1] (setting [3]) was -32.6%; in data set [1] (setting [4]), -23.6%; in data set [1] (setting [5]) it was -24.4%; in data set [1] (setting [6]), -17%; in data set [1] (setting [7]) it was -17.8%; in data set [1] (setting [8]), -23.8%. Moreover, the change in vivo at 500 µM was -10.2% in data set [2] (setting [9]); -3% in data set [2] (setting [10]); -1.4% in data set [2] (setting [11]); 0.1% in data set [2] (setting [12]); 1.7% in data set [2] (setting [13]); 1.1% in data set [2] (setting [14]). Besides, the change in vivo at 500 µM in data set [2] (setting [15]) was -1.2%.

Turning to `CCN1C(=O)CC(C)c2cc(CNS(=O)(=O)c3ccccc3)ccc21` (centres unmarked) [Compound 20.001, N-[(1-ethyl-4-methyl-2-oxo-3,4-dihydroquinolin-6-yl)methyl]benzenesulfonamide], the change in vivo at 500 µM is -50.1% in data set [1] (setting [3]); -58.5% in data set [1] (setting [4]); -55.2% in data set [1] (setting [5]); -55.8% in data set [1] (setting [6]); -50.5% in data set [1] (setting [7]); -54.4% in data set [1] (setting [8]). The change in vivo at 500 µM in data set [2] (setting [9]) is -21.7%; in data set [2] (setting [10]), -18.3%; in data set [2] (setting [11]), -19.2%; in data set [2] (setting [12]), -10.3%; in data set [2] (setting [13]), -8.1%; in data set [2] (setting [14]), -5.5%. For the same compound, the change in vivo at 500 µM in data set [2] (setting [15]) was -12.9%.

As for `CCN1C(=O)CC(C)c2cc(CNS(=O)(=O)c3ccc(F)cc3F)ccc21` (centres unmarked) [Compound 20.006, N-[(1-ethyl-4-methyl-2-oxo-3,4-dihydroquinolin-6-yl)methyl]-2,4-difluoro-benzenesulfonamide], the change in vivo at 500 µM was -15.5% in data set [2] (setting [9]); -14.5% in data set [2] (setting [10]); -13.2% in data set [2] (setting [11]); -7% in data set [2] (setting [12]); -5.7% in data set [2] (setting [13]); -4.3% in data set [2] (setting [14]). Moreover, the change in vivo at 500 µM in data set [2] (setting [15]) is -9.4%.
